Measurements taken from patent US8030293B2, “Methods of optimizing drug therapeutic efficacy for treatment of immune-mediated gastrointestinal disorders” (Hopital-Sainte-Justine, priority 1998, dated 2011).
Where two headings read alike, the source gives them in different places. Marks after values point to notes of the source that are not given here. Each block holds one compound with its values, some of them ahead of it.

Experiments:
[1] = 6-MP metabolite levels by gender and age in pediatric IBD patients (Example III); type: in vivo, human; conditions: for 6-TG level / 6-MMP level: TPMT wild type
Procedure: These patients were wild type for TPMT. Patients were assessed based on gender and age as it relates to puberty. Puberty is established at 12 years of age in girls and 14 years of age in boys.

[2] = 6-TG levels by TPMT genotype in IBD patients (Example IV); type: in vivo, human; conditions: for mean 6-TG: in pmol/8×10^8 RBC
Procedure: The genotype of TPMT was determined in IBD patients that were responders and non responders. Genotyping of TPMT was measured essentially as described previously (Baccichet et al., Leuk. Res. 21:817-823 (1997); Zietkiewicz et al., Gene 205:161-171 (1997)). […] All heterozygote patients were responders to 6-MP.

[3] = Erythrocyte 6-MP metabolite levels by reverse phase HPLC in IBD patients on 6-MP drug (Example I); conditions: erythrocytes
Procedure: Briefly, blood was sampled (n=89) prior to daily administration of 6-MP in 55 IBD patients (CD n=51, UC n=4) receiving 1-1.5 mg/kg/day over at least a 4 month period (≧4 mo.). When AZA was administered, a conversion factor of 2.07 was used to convert to the equivalent 6-MP dose. Twice as much AZA is administered relative to 6-MP to have an equivalent dose of 6-MP.
Erythrocyte 6-TG, 6-MMP and 6-MP thiobases were measured (pmol/8×10^8 RBC) using reverse phase HPLC. Briefly, blood samples were collected in EDTA (ethylene diamine tetraacetic acid) as anticoagulant. Cells were centrifuged and washed three times with an equal volume of 0.9% saline. Washed packed cells were stored at −70° C. until analysis was performed.
For acid hydrolysis, 500 μl deionized H2O, 50 μl thawed red blood cells, 40 μl of the appropriate standard or control, 500 μl 3.0 NH2SO4, and 300 μl 10 mM dithiothreitol (DTT) was added to an 8 ml glass screw cap tube. The capped tubes were placed in a heating block preheated to 100° C. and hydrolyzed. For 6-MMP, hydrolysis was carried out for 5 hours. For 6-MP and 6-TG, hydrolysis was carried out for 1 hour. After the incubation, tubes were cooled in a room temperature water bath. To tubes hydrolyzed for 5 hours (6-MMP), 400 μl 3.4 N NaOH and 1.0 ml 2 M Tris buffer, pH 9.0 was added. To tubes hydrolyzed for 1 hour (6-MP/6-TG), 450 μl 3.4 N NaOH and 500 μl 2M Tris base was added. A volume of 4 ml 0.03% phenylmercuric chloride in methylene chloride was added to each tube. The tubes were capped and lightly agitated on a bi-directional rotator (15 min for 6-MMP and 30 min for 6-MP/6-TG). The contents were transferred to a 15 ml polypropylene centrifuge tube and centrifuged at 3500 rpm for 3 min at 10° C. The aqueous phase (top layer) was discarded, and 3.0 ml of the organic phase (bottom layer) was transferred to a clean 15 ml polypropylene centrifuge tube. The analytes in the organic phase were back extracted by adding 225 μl 0.1 N HCl and lightly mixing on an orbital rotator for 5 min. Following vortexing for 30 seconds, the tubes were centrifuged at 3500 rpm for 3 min at 10° C.
For 6-MMP analysis, 50 μl analyte was analyzed on a C18 reverse phase column with the mobile phase containing 1 mM DTT, 2.078% triethylamine and 4% methanol, adjusted to pH 3.2 with concentrated H3PO4. For 6-MP and 6-TG analysis, 100 μl analyte was analyzed on a C18 reverse phase column using 0.1 M H3PO4 and 1 mM DTT in H2O as the mobile phase.
Clinical remission was defined as a Harvey Bradshaw Index <5 in those patients off corticosteroids or weaned to a level of prednisone ≦0.4 mg/kg/od (administered every other day). Treatment failures were defined as non-responders (HBI>5 or steroid dependence) or cessation of 6-MP due to side effects.

[4] = erythrocytes
Excerpt: The 93 patients were pediatric patients, with 80 diagnosed as having CD, 8 diagnosed as having UC, and 5 diagnosed as having indeterminate colitis (CD or UC). All but 7 patients were given AZA. The dosages were converted to 6-MP equivalents using a factor of 2.07 as described in Example I. For some patients, two or more samples were obtained and analyzed. Response to 6-MP was defined by clinical remission (HBI<5, closed fistula) without corticosteroids. Disease activity and physical exam were ascertained at each clinic visit at which 6-MP metabolite levels were determined (clinical evaluation point). Hematological, pancreatic and hepatic laboratory parameters were evaluated simultaneously Erythrocyte 6-TG and 6-MMP concentrations (pmol/8×10^8 RBC) were measured by HPLC (Cuffari et al., supra, 1996a).
The number of samples corresponds to the number of different samples obtained from the 93 patients.

[5] = human, in vivo
Procedure: All but 7 patients were given AZA.
Toxicity was measured essentially as described previously (Cuffari et al., supra; 1996a).

[6] = Responsiveness to 6-MP drug therapy by TPMT genotype in IBD patients (Example IV); type: in vivo, human
Procedure: The genotype of TPMT was determined in IBD patients that were responders and non responders. Genotyping of TPMT was measured essentially as described previously (Baccichet et al., Leuk. Res. 21:817-823 (1997); Zietkiewicz et al., Gene 205:161-171 (1997)).

6-TG level ([1]; Boys (0-14 y), 51 observed): 235.0 pmol per 8 × 10^8 RBC
6-TG level ([1]; Boys (>14 y), 104 observed): 222.5 pmol per 8 × 10^8 RBC
6-TG level ([1]; Girls (0-12 y), 39 observed): 182.2 pmol per 8 × 10^8 RBC
6-TG level ([1]; Girls (>12 y), 116 observed): 217.2 pmol per 8 × 10^8 RBC
mean 6-TG ([2]; TPMT Heterozygote patients, p less than 0.0001): 589*
mean 6-TG ([2]; TPMT Normal patients): 247
6-TG levels of TPMT heterozygotes ([2]; all 8 heterozygotes): > 230 pmol/8×10^8 RBC
median 6-TG ([3]; Non-responders, n=31, p<0.001): 184* pmol per 8×10^8 RBC
median 6-TG ([3]; Responders, n=58 samples, 6-MP 1-1.5 mg/kg/day ≥4 mo.): 295 pmol per 8×10^8 RBC
median 6-TG ([4]; Relapse, n=72 samples): 197 pmol/8×10^8 RBC
median 6-TG ([4]; Remission, n=106 samples, p<0.0001): 309* pmol/8×10^8 RBC
Structure (SMILES): Nc1nc2nc[nH]c2c(=S)[nH]1 [6-TG, 6-thioguanine]
median 6-TG ([3]; Hematologic toxicity group, n=6, p<0.03): 414+ pmol per 8×10^8 RBC
median 6-TG ([3]; Hepatic toxicity group, n=7): 258 pmol per 8×10^8 RBC
median 6-TG ([3]; Pancreatic toxicity group, n=6): 211 pmol per 8×10^8 RBC

Ratio 6-MMP/6-TG ([1]; Boys (0-14 y)): 17.24
6-MMP level ([1]; Boys (0-14 y), 51 observed): 3681.6 pmol per 8 × 10^8 RBC
6-MMP level ([1]; Boys (>14 y), 104 observed, p<0.001): 1662.3* pmol per 8 × 10^8 RBC
Ratio 6-MMP/6-TG ([1]; Boys (>14 y), p<0.001): 6.78*
Ratio 6-MMP/6-TG ([1]; Girls (0-12 y)): 18.52
6-MMP level ([1]; Girls (0-12 y), 39 observed): 3447.0 pmol per 8 × 10^8 RBC
Ratio 6-MMP/6-TG ([1]; Girls (>12 y)): 12.55
6-MMP level ([1]; Girls (>12 y), 116 observed): 3304.5 pmol per 8 × 10^8 RBC
Median 6-MMP ([4]; Relapse, n=72 samples): 1602 pmol/8×10^8 RBC
Median 6-MMP ([4]; Remission, n=106 samples): 2600 pmol/8×10^8 RBC
Structure (SMILES): CSc1ncnc2nc[nH]c12 [6-MMP, 6-methyl-mercaptopurine]
6-MMP level associated with hepatotoxicity [5]: greater than 7000 pmol 6-MMP/8×10^8

Structure (SMILES): Sc1ncnc2nc[nH]c12 [6-MP, 6-Mercaptopurine]
response of TPMT heterozygotes to 6-MP ([6]; 8 of 93 patients heterozygotes): All 8 heterozygotes responded
Non. responder ([6]; TPMT Heterozygote IBD patients): 0%
Responder ([6]; TPMT Heterozygote IBD patients): 100%
Non. responder ([6]; TPMT Normal IBD patients): 45%
Responder ([6]; TPMT Normal IBD patients): 55%
